In US20070135515A1, “Method for producing sorbicillactone a” (priority 2004, published 2007):

Test system: neuronal cells
Test: Intracellular calcium level [Ca2+]i in primary neurons (Fura-2 fluorescence ratio 340/380 nm)
Assay type: cell-based, rat
Excerpt: Material: The same materials as described in Perovic et al. (1998, Mech. Ageing Dev. 101:1-19) were used. Fura-2-acetoxymethylester (Fura-2-AM) was obtained from Molecular Probes (Leiden, The Netherlands), Dulbecco's modified Eagle's Medium with 4.5 g/L glucose (DMEM/HG), L-glutamic acid (L-Glu), and serotonin (5-HT) from Sigma-Aldrich (Taufkirchen, Germany) and the antibodies mouse-anti-neurofilament (68 kDa) and mouse-anti-glial-fibrillary-acidic-protein (GFAP) from Roche Diagnostics (Mannheim, Germany). Sorbicillactone A of the batch: 2208/2a was used.
Primary neurons: The cortical cell culture was produced from the brains of 17-18 day-old rat embryos, according to a modified procedure [Freshney (1987) Culture of specific cell types. In: Culture of Animal Cells. A Manual of Basic Technique, A. R. Liss, New York, S. 257-288; Perovic et al. (1994) Eur. J. Pharmacol. (Mol. Pharmacol. Sec.) 288:27-33]. After the isolation, the cerebral-hemispheres were put into Hank's Balanced Salt Solution (HBSS) without Ca^2+ and Mg^2+, and the neuronal cells were subsequently dissociated in HBSS using 0.025% (w/v) trypsin (10 min.; 37° C.). The proteolytic reaction was stopped with 10% (v/v) foetal calf serum (FCS). The single-cell suspensions were centrifuged, and the resulting pellet was taken up into Dulbecco's modified Eagles's Medium with 4.5 g/L glucose (DMEM/HG) (contains 2 mM L-glutamine, 100 mU/L insulin, and 10% (v/v) FCS). The cells were plated in a chamber with poly-L-lysine (5 μg/mL, 300 μl/cm^2) in a cell density of 2.0×10^5 cells/cm^2. After two days the DMEM/HG/10%-FCS-medium was removed and replaced with DMEM/HG/serum-free medium. Two weeks after the isolation, the immune staining took place with anti-neurofilament (68 kDa) as a marker for neurons, and anti-GFAP as a marker for glial cells. The cultures contained >80% neurons; the residual 20% were GFAP-positive cells, mainly astrocytes (Ushijima et al. (1995) Eur. J. Neurosci. 7:1353-9). The neurons were held in an atmosphere of 95% air and 5% CO2 at 37° C.
Loading of neurons with Fura-2-AM: The intracellular Ca^2+-concentration ([Ca^2+]i) was determined by fluorescence measurements. The ratio of the absorption of the Ca^2+-indicator dye Fura-2-AM at 340 and 380 nm (Grynkiewicz et al. (1985) J. Biol. Chem. 260:3440-50) was decisive. The neurons were loaded with 6 μM Fura-2-AM in DMEM/HG/serum-free medium (supplemented with 1% (w/v) bovine serum albumin) at 37° C. for 60 min. After incubation, the cells were washed two times with medium, and further incubated for 45 min at 37° C.
Calcium-calibration curve: A calcium-calibration curve was produced according to the methods of Grynkiewicz et al. (1985, J. Biol. Chem. 260:3440-50). Fluorescence pictures were obtained for each buffer at 340 and 380 nm. The quotient from both fluorescence spectra (340/380 nm) was calculated, and depicted as a calibration curve. The quotient (340/380 nm [ratio-value]) of 1.0 corresponds to 228 nM [Ca^2+]i.
Changes of the calcium level in neurons: In all experimental settings, the cells were first loaded with Fura-2-AM, and subsequently stimulated with different substances (in Locke's solution; 154 mM NaCl; 5.6 mM KCl; 3.6 mM NaHCO3; 5.6 mM glucose, and 10 mM Hepes; pH 7.4; without CaCl2). Sorbicillactone A was dissolved in a concentration of 10 mg/mL in 100% (v/v) DMSO, and stored at −20° C. In the first setting, the neurons were stimulated for 5 min with 0.1% (v/v) DMSO (control); after 10 min 200 μM L-glutamic acid (L-Glu), 200 μM serotonin (5-HT), and 2.5 mM CaCl2 were added to the cells. In a second setting, the effect of L-Glu, 5-HT, and 2.5 mM CaCl2 on the calcium level of pre-incubated neurons (each 5 min with 10 μg/mL sorbicillactone A) was tested. In all experiments, the [Ca^2+]i-level was measured for at least 20-25 min. […]

Q: How did the “effect on [Ca2+]i in neuronal cells” value (10 μg/mL sorbicillactone A alone) turn out when `C/C=C/C=C/C(O)=C1/C(=O)C(C)=C(O)[C@@]2(C)OC(=O)[C@@](C)(NC(=O)/C=C/C(=O)O)[C@@H]12` [sorbicillactone A] was run?
A: nearly no effect

Q: What about the “reduction in the [Ca2+]i-level” value (pre-incubation 5 min with 10 μg/mL, then 200 μM L-Glu and 2.5 mM CaCl2, p<0.001, FIG. 1A) of the same compound?
A: 46.7%

Q: What about the “reduction of the free calcium concentration compared to the control” value (pre-incubation with 10 μg/mL, then 200 μM 5-HT and 2.5 mM CaCl2, FIG. 1B) of the same compound?
A: 77.6%
